Test results from patent US20240050526A1, “CATH2 DERIVATIVES FOR STIMULATING INNATE IMMUNE MEMORY” (priority 2020, published 2024).
Square brackets hold non-standard residues; d marks the D form. Ends that are not written are not given here.

How the values were obtained:
dTHP-1 cells = experiment: RNA sequencing of DCATH-2 trained dTHP-1 cells; type: cell-based, human
Description: dTHP-1 cells (1×10^6/well) were primed for 24 h with DCATH-2 in 6 well plates containing 1 ml medium, using culture medium as control. After priming, cells were washed 3 times and left to rest for 3 days in culture medium. Cells were stimulated for 6 h with 50 ng/ml E. coli O111:B4 LPS or fresh medium. Supernatants were stored for cytokine analysis. Cells were harvested by rinsing once with ice-cold DPBS and lysing cells in 100 μl RLT buffer (Qiagen) containing 1% 2-mercaptoethanol. After scraping, per condition the contents of two wells were transferred into vials, flash frozen in liquid nitrogen and stored at −80° C. for analysis. Total RNA was extracted in RLT buffer (RNeasy kit, Qiagen) supplemented with 2-mercaptoethanol and purified using a Qiagen QiaSymphony SP system. RNA libraries were prepared using the Truseq stranded total RNA (ribo-zero) library prep kit (Illumina) according the manufacturer's recommendations. RNA-sequencing was done with a NextSeq 500 system 1×75 bp high-output kit. Single-end RNASeq reads were processed using the UMCU RNASeq pipeline (v2.3.0) with default settings. Read quality was assessed with FastQC (0.11.4) followed by splice-aware alignment against the human reference genome (GRCh37) with STAR (2.4.2a). RNA expression quantification was performed with htseq-count (0.6.0) in reverse-stranded mode. Differential gene expression analysis was carried out with the DESeq2 package in DEBrowser (https://debrowser.umassmed.edu/). In each comparsion, genes were selected with an absolute fold-change >1.5 and alpha P<0.05. Pathway enrichment analysis was performed in g:Profiler (https://biit.cs.ut.ee/gprofiler/) using separate FDR ranked differentially expressed gene lists for up and down regulated genes with a Benjamini-Hochberg FDR correction for multiple testing and a FDR<0.05 threshold. Enriched pathways of GO Biologic Processes were visualized in Cytoscape (http://www.cytoscape.org/) using EnrichmentMap (http://www.baderlab.org/Software/EnrichmentMap) and a FDR cutoff of 0.01. Similarity statistic threshold was set at Jaccard>0.25 and filtered for gene set sizes between 5 and 500 genes.

[1] = test system: Candida albicans ATCC10231; experiment: Candidacidal activity of DCATH-2 primed dTHP-1 cells; type: cell-based; settings: 24 h DCATH-2 training; colonies after 48 h
Description: dTHP-1 cells were seeded in 6 well plates and primed with DCATH-2 or medium as described. Candida albicans ATCC10231 was grown in yeast malt broth (Oxoid) at 30° C., diluted in DPBS to 1×10^4 CFU/ml and added to each well (MOI of 0.03). After 5 h incubation at 30° C., supernatants were transferred and kept. The remaining cells were supplemented with 0.5 ml of sterile water, mixed vigorously and combined with their corresponding well supernatants. Serial dilutions prepared in yeast malt broth were plated onto yeast malt agar. Colonies were counted after 48 h at 30° C.

[2] = DCATH-2 training, during LPS stimulation
[3] = RNAseq experiment, 24 h priming, 3 days rest, 6 h E. coli LPS stimulation
[4] = trained LPS-stimulated cells vs LPS-stimulated control cells
[5] = trained and rested cells vs unstimulated control cells

rfgrflrkirrfrpkvtitiqgsarf-NH2 ([dR][dF]G[dR][dF][dL][dR][dK][dI][dR][dR][dF][dR][dP][dK][dV][dT][dI][dT][dI][dQ]G[dS][dA][dR][dF]-NH2; N-terminus assumed; SMILES CC[C@@H](C)[C@@H](NC(=O)[C@@H](CCCCN)NC(=O)[C@@H](CCCNC(=N)N)NC(=O)[C@@H](CC(C)C)NC(=O)[C@@H](Cc1ccccc1)NC(=O)[C@@H](CCCNC(=N)N)NC(=O)CNC(=O)[C@@H](Cc1ccccc1)NC(=O)[C@H](N)CCCNC(=N)N)C(=O)N[C@H](CCCNC(=N)N)C(=O)N[C@H](CCCNC(=N)N)C(=O)N[C@H](Cc1ccccc1)C(=O)N[C@H](CCCNC(=N)N)C(=O)N1CCC[C@@H]1C(=O)N[C@H](CCCCN)C(=O)N[C@@H](C(=O)N[C@@H](C(=O)N[C@@H](C(=O)N[C@@H](C(=O)N[C@@H](C(=O)N[C@H](CCC(N)=O)C(=O)NCC(=O)N[C@H](CO)C(=O)N[C@H](C)C(=O)N[C@H](CCCNC(=N)N)C(=O)N[C@H](Cc1ccccc1)C(N)=O)[C@H](C)CC)[C@H](C)O)[C@H](C)CC)[C@H](C)O)C(C)C) [DCATH-2, full D-amino acid analog of CATH-2]
Log 2 fold change, gene AHNAK2 (dTHP-1 cells; [2]): 1.12
Log 2 fold change, gene CCL18 (dTHP-1 cells; [2]): 2.81
Log 2 fold change, gene CCRL2 (dTHP-1 cells; [2]): 1.04
Log 2 fold change, gene CD22 (dTHP-1 cells; [2]): 1.18
Log 2 fold change, gene CSF2 (dTHP-1 cells; [2]): 1.81
Log 2 fold change, gene CXCL3 (dTHP-1 cells; [2]): 1.18
Log 2 fold change, gene FAM213B (dTHP-1 cells; [2]): 1.02
Log 2 fold change, gene FOXF1 (dTHP-1 cells; [2]): 1.21
Log 2 fold change, gene HSPBAP1 (dTHP-1 cells; [2]): 1.06
Log 2 fold change, gene IL1A (dTHP-1 cells; [2]): 1.15
Log 2 fold change, gene IL6 (dTHP-1 cells; [2]): 2.17
Log 2 fold change, gene KLF2 (dTHP-1 cells; [2]): 2.54
Log 2 fold change, gene LIF (dTHP-1 cells; [2]): 2.73
Log 2 fold change, gene MFSD2A (dTHP-1 cells; [2]): 1.04
Log 2 fold change, gene MYLK (dTHP-1 cells; [2]): 1.17
Log 2 fold change, gene PTGS2 (dTHP-1 cells; [2]): 1.29
Log 2 fold change, gene SEPT3 (dTHP-1 cells; [2]): 1.06
Log 2 fold change, gene TIE1 (dTHP-1 cells; [2]): 1.46
Log 2 fold change, gene TNFSF15 (dTHP-1 cells; [2]): 1.19
Log 2 fold change, gene TRIM47 (dTHP-1 cells; [2]): 2.45
Log 2 fold change, gene TRPM8 (dTHP-1 cells; [2]): 1.36
Log 2 fold change, gene ZNF358 (dTHP-1 cells; [2]): 1.04
amplification of IL-6 production (dTHP-1 cells; [3]): 3.3 fold
amplification of TNFα production (dTHP-1 cells; [3]): 2.5 fold
downregulated DEGs (dTHP-1 cells; [4]): 54
upregulated DEGs (dTHP-1 cells; [4]): 71
downregulated DEGs (dTHP-1 cells; [5]): 126
upregulated DEGs (dTHP-1 cells; [5]): 156
inhibition of outgrowth of Candida albicans vs non-primed dTHP-1 cells [1]: 68±10%
